How the values were obtained:
Test in all cases: relative viability (nuclei count vs DMSO), 5 days (fraction); higher = more cells survive
AT9283 + Vorinostat = compound: O=C(Nc1c[nH]nc1-c1nc2ccc(CN3CCOCC3)cc2[nH]1)NC1CC1 [AT9283] + O=C(CCCCCCC(=O)Nc1ccccc1)NO [Vorinostat] (partner 1 µM)
Summary of the method: (§1)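 The day after seeding in 1536-well plates, lung cancer cell lines were treated by pin tool with a single drug, or with a fixed anchor-drug dose together with five library-drug doses (not always all listed) in √10 steps. After 5 days, a combined fix-and-stain solution (final 0.05% Triton X-100, 1% formaldehyde, 1 ug/ml Hoechst) was added. Nuclei counted on 4× images gave relative viability as treated counts over vehicle counts, reported as the median of duplicate plates.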

AT9283 + Lapatinib = compound: O=C(Nc1c[nH]nc1-c1nc2ccc(CN3CCOCC3)cc2[nH]1)NC1CC1 [AT9283] + CS(=O)(=O)CCNCc1ccc(-c2ccc3ncnc(Nc4ccc(OCc5cccc(F)c5)c(Cl)c4)c3c2)o1 [Lapatinib] (partner 2 µM)
Summary of the method: as §1

AT9283 + Navitoclax = compound: O=C(Nc1c[nH]nc1-c1nc2ccc(CN3CCOCC3)cc2[nH]1)NC1CC1 [AT9283] + CC1(C)CCC(c2ccc(Cl)cc2)=C(CN2CCN(c3ccc(C(=O)NS(=O)(=O)c4ccc(N[C@H](CCN5CCOCC5)CSc5ccccc5)c(S(=O)(=O)C(F)(F)F)c4)cc3)CC2)C1 [Navitoclax] (partner 0.5 µM)
Summary of the method: as §1

EMC-BAC-2
relative viability (AT9283 + Vorinostat; first compound 0.003 µM): 0.28
relative viability (AT9283 + Vorinostat; first compound 0.03 µM): 0.19
relative viability (AT9283 + Vorinostat; first compound 0.09487 µM): 0.159
relative viability (AT9283 + Vorinostat; first compound 0.3 µM): 0.146
relative viability (AT9283 + Lapatinib; first compound 0.003 µM): 0.875
relative viability (AT9283 + Lapatinib; first compound 0.03 µM): 0.599
relative viability (AT9283 + Lapatinib; first compound 0.09487 µM): 0.229
relative viability (AT9283 + Lapatinib; first compound 0.3 µM): 0.225
relative viability (AT9283 + Navitoclax; first compound 0.003 µM): 1.23
relative viability (AT9283 + Navitoclax; first compound 0.03 µM): 0.785
relative viability (AT9283 + Navitoclax; first compound 0.09487 µM): 0.199
relative viability (AT9283 + Navitoclax; first compound 0.3 µM): 0.25

EPLC-272H
relative viability (AT9283 + Vorinostat; first compound 0.003 µM): 0.467
relative viability (AT9283 + Vorinostat; first compound 0.03 µM): 0.167
relative viability (AT9283 + Vorinostat; first compound 0.09487 µM): 0.206
relative viability (AT9283 + Vorinostat; first compound 0.3 µM): 0.139
relative viability (AT9283 + Lapatinib; first compound 0.003 µM): 0.854
relative viability (AT9283 + Lapatinib; first compound 0.03 µM): 0.975
relative viability (AT9283 + Lapatinib; first compound 0.09487 µM): 0.319
relative viability (AT9283 + Lapatinib; first compound 0.3 µM): 0.137
relative viability (AT9283 + Navitoclax; first compound 0.003 µM): 0.984
relative viability (AT9283 + Navitoclax; first compound 0.03 µM): 1.05
relative viability (AT9283 + Navitoclax; first compound 0.09487 µM): 1.1
relative viability (AT9283 + Navitoclax; first compound 0.3 µM): 0.138

H3255
relative viability (AT9283 + Vorinostat; first compound 0.003 µM): 0.818
relative viability (AT9283 + Vorinostat; first compound 0.03 µM): 0.907
relative viability (AT9283 + Vorinostat; first compound 0.09487 µM): 0.733
relative viability (AT9283 + Vorinostat; first compound 0.3 µM): 0.298
relative viability (AT9283 + Lapatinib; first compound 0.003 µM): 0.22
relative viability (AT9283 + Lapatinib; first compound 0.03 µM): 0.258
relative viability (AT9283 + Lapatinib; first compound 0.09487 µM): 0.173
relative viability (AT9283 + Lapatinib; first compound 0.3 µM): 0.159
relative viability (AT9283 + Navitoclax; first compound 0.003 µM): 0.513
relative viability (AT9283 + Navitoclax; first compound 0.03 µM): 0.499
relative viability (AT9283 + Navitoclax; first compound 0.09487 µM): 0.216
relative viability (AT9283 + Navitoclax; first compound 0.3 µM): 0.105

HARA
relative viability (AT9283 + Vorinostat; first compound 0.003 µM): 0.365
relative viability (AT9283 + Vorinostat; first compound 0.03 µM): 0.453
relative viability (AT9283 + Vorinostat; first compound 0.09487 µM): 0.122
relative viability (AT9283 + Vorinostat; first compound 0.3 µM): 0.0962
relative viability (AT9283 + Lapatinib; first compound 0.003 µM): 0.767
relative viability (AT9283 + Lapatinib; first compound 0.03 µM): 0.504
relative viability (AT9283 + Lapatinib; first compound 0.09487 µM): 0.0806
relative viability (AT9283 + Lapatinib; first compound 0.3 µM): 0.0666
relative viability (AT9283 + Navitoclax; first compound 0.003 µM): 1.1
relative viability (AT9283 + Navitoclax; first compound 0.03 µM): 0.129
relative viability (AT9283 + Navitoclax; first compound 0.09487 µM): 0.0715
relative viability (AT9283 + Navitoclax; first compound 0.3 µM): 0.101

HCC-15
relative viability (AT9283 + Vorinostat; first compound 0.003 µM): 0.873
relative viability (AT9283 + Vorinostat; first compound 0.03 µM): 0.426
relative viability (AT9283 + Vorinostat; first compound 0.09487 µM): 0.165
relative viability (AT9283 + Vorinostat; first compound 0.3 µM): 0.166
relative viability (AT9283 + Lapatinib; first compound 0.003 µM): 0.745
relative viability (AT9283 + Lapatinib; first compound 0.03 µM): 0.37
relative viability (AT9283 + Lapatinib; first compound 0.09487 µM): 0.159
relative viability (AT9283 + Lapatinib; first compound 0.3 µM): 0.142
relative viability (AT9283 + Navitoclax; first compound 0.003 µM): 0.685
relative viability (AT9283 + Navitoclax; first compound 0.03 µM): 0.515
relative viability (AT9283 + Navitoclax; first compound 0.09487 µM): 0.246
relative viability (AT9283 + Navitoclax; first compound 0.3 µM): 0.148

HCC-44
relative viability (AT9283 + Vorinostat; first compound 0.003 µM): 1.07
relative viability (AT9283 + Vorinostat; first compound 0.03 µM): 1.05
relative viability (AT9283 + Vorinostat; first compound 0.09487 µM): 0.571
relative viability (AT9283 + Vorinostat; first compound 0.3 µM): 0.567
relative viability (AT9283 + Lapatinib; first compound 0.003 µM): 0.922
relative viability (AT9283 + Lapatinib; first compound 0.03 µM): 0.641
relative viability (AT9283 + Lapatinib; first compound 0.09487 µM): 0.23
relative viability (AT9283 + Lapatinib; first compound 0.3 µM): 0.188
relative viability (AT9283 + Navitoclax; first compound 0.003 µM): 0.897
relative viability (AT9283 + Navitoclax; first compound 0.03 µM): 0.787
relative viability (AT9283 + Navitoclax; first compound 0.09487 µM): 0.823
relative viability (AT9283 + Navitoclax; first compound 0.3 µM): 0.257

HCC-78
relative viability (AT9283 + Vorinostat; first compound 0.003 µM): 0.384
relative viability (AT9283 + Vorinostat; first compound 0.03 µM): 0.385
relative viability (AT9283 + Vorinostat; first compound 0.09487 µM): 0.258
relative viability (AT9283 + Vorinostat; first compound 0.3 µM): 0.229
relative viability (AT9283 + Lapatinib; first compound 0.003 µM): 0.562
relative viability (AT9283 + Lapatinib; first compound 0.03 µM): 0.587
relative viability (AT9283 + Lapatinib; first compound 0.09487 µM): 0.224
relative viability (AT9283 + Lapatinib; first compound 0.3 µM): 0.196
relative viability (AT9283 + Navitoclax; first compound 0.003 µM): 0.721
relative viability (AT9283 + Navitoclax; first compound 0.03 µM): 0.511
relative viability (AT9283 + Navitoclax; first compound 0.09487 µM): 0.169
relative viability (AT9283 + Navitoclax; first compound 0.3 µM): 0.145

HCC-366
relative viability (AT9283 + Vorinostat; first compound 0.003 µM): 0.292
relative viability (AT9283 + Vorinostat; first compound 0.03 µM): 0.2
relative viability (AT9283 + Vorinostat; first compound 0.09487 µM): 0.0353
relative viability (AT9283 + Vorinostat; first compound 0.3 µM): 0.0463
relative viability (AT9283 + Lapatinib; first compound 0.003 µM): 1.01
relative viability (AT9283 + Lapatinib; first compound 0.03 µM): 0.0702
relative viability (AT9283 + Lapatinib; first compound 0.09487 µM): 0.0449
relative viability (AT9283 + Lapatinib; first compound 0.3 µM): 0.0374
relative viability (AT9283 + Navitoclax; first compound 0.003 µM): 1.1
relative viability (AT9283 + Navitoclax; first compound 0.03 µM): 0.842
relative viability (AT9283 + Navitoclax; first compound 0.09487 µM): 0.191
relative viability (AT9283 + Navitoclax; first compound 0.3 µM): 0.0248

HCC-827
relative viability (AT9283 + Vorinostat; first compound 0.003 µM): 0.612
relative viability (AT9283 + Vorinostat; first compound 0.03 µM): 0.36
relative viability (AT9283 + Vorinostat; first compound 0.09487 µM): 0.363
relative viability (AT9283 + Vorinostat; first compound 0.3 µM): 0.248
relative viability (AT9283 + Lapatinib; first compound 0.003 µM): 0.195
relative viability (AT9283 + Lapatinib; first compound 0.03 µM): 0.216
relative viability (AT9283 + Lapatinib; first compound 0.09487 µM): 0.191
relative viability (AT9283 + Lapatinib; first compound 0.3 µM): 0.164
relative viability (AT9283 + Navitoclax; first compound 0.003 µM): 0.995
relative viability (AT9283 + Navitoclax; first compound 0.03 µM): 0.879
relative viability (AT9283 + Navitoclax; first compound 0.09487 µM): 0.449
relative viability (AT9283 + Navitoclax; first compound 0.3 µM): 0.326

HOP-62
relative viability (AT9283 + Vorinostat; first compound 0.003 µM): 0.637
relative viability (AT9283 + Vorinostat; first compound 0.03 µM): 0.262
relative viability (AT9283 + Vorinostat; first compound 0.09487 µM): 0.183
relative viability (AT9283 + Vorinostat; first compound 0.3 µM): 0.186
relative viability (AT9283 + Lapatinib; first compound 0.003 µM): 1.06
relative viability (AT9283 + Lapatinib; first compound 0.03 µM): 0.984
relative viability (AT9283 + Lapatinib; first compound 0.09487 µM): 0.47
relative viability (AT9283 + Lapatinib; first compound 0.3 µM): 0.176
relative viability (AT9283 + Navitoclax; first compound 0.003 µM): 1.07
relative viability (AT9283 + Navitoclax; first compound 0.03 µM): 0.857
relative viability (AT9283 + Navitoclax; first compound 0.09487 µM): 0.088
relative viability (AT9283 + Navitoclax; first compound 0.3 µM): 0.106

IA-LM
relative viability (AT9283 + Vorinostat; first compound 0.003 µM): 0.927
relative viability (AT9283 + Vorinostat; first compound 0.03 µM): 0.624
relative viability (AT9283 + Vorinostat; first compound 0.09487 µM): 0.144
relative viability (AT9283 + Vorinostat; first compound 0.3 µM): 0.111
relative viability (AT9283 + Lapatinib; first compound 0.003 µM): 0.793
relative viability (AT9283 + Lapatinib; first compound 0.03 µM): 0.27
relative viability (AT9283 + Lapatinib; first compound 0.09487 µM): 0.0791
relative viability (AT9283 + Lapatinib; first compound 0.3 µM): 0.0891
relative viability (AT9283 + Navitoclax; first compound 0.003 µM): 0.952
relative viability (AT9283 + Navitoclax; first compound 0.03 µM): 0.372
relative viability (AT9283 + Navitoclax; first compound 0.09487 µM): 0.112
relative viability (AT9283 + Navitoclax; first compound 0.3 µM): 0.0779

— the supplement of paper PMC10307832
